Assay results: ChEMBL document CHEMBL1201862, “PubChem BioAssay data set” (2004)
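Cultured in 96-well plates, cells were exposed to test compound for 48 hours across five concentrations. GI50 = concentration required for 50% inhibition of growth.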 Active and inactive are the calls of the source. Rule as the data show it: active = GI50 up to about 1.1 µM and inactive = higher.

Experiments:
Test in all cases: growth of human tumour cells (NCI), 48 h
[1] = tested on: 786-0
[2] = tested on: A498
[3] = tested on: A549
[4] = tested on: ACHN
[5] = tested on: CAKI-1
[6] = tested on: CCRF-CEM
[7] = tested on: COLO 205
[8] = tested on: DLD-1
[9] = tested on: DMS-114
[10] = tested on: DMS-273
[11] = tested on: EKVX
[12] = tested on: HCC 2998
[13] = tested on: HCT-116
[14] = tested on: HCT-15
[15] = tested on: HL-60
[16] = tested on: HOP-18
[17] = tested on: HOP-62
[18] = tested on: HOP-92
[19] = tested on: HT-29
[20] = tested on: IGROV-1
[21] = tested on: K562
[22] = tested on: KM-20L2
[23] = tested on: KM12
[24] = tested on: LXFL 529
[25] = tested on: M14
[26] = tested on: M19-MEL
[27] = tested on: MOLT-4
[28] = tested on: Malme-3M
[29] = tested on: NCI-H226
[30] = tested on: NCI-H23
[31] = tested on: NCI-H460
[32] = tested on: NCI-H522
[33] = tested on: OVCAR-4
[34] = tested on: OVCAR-5
[35] = tested on: OVCAR-8
[36] = tested on: RPMI-8226
[37] = tested on: RXF 393
[38] = tested on: SF-268
[39] = tested on: SF-295
[40] = tested on: SF-539
[41] = tested on: SK-MEL-28
[42] = tested on: SK-MEL-2
[43] = tested on: SK-MEL-5
[44] = tested on: SK-OV-3
[45] = tested on: SN12C
[46] = tested on: SNB-19
[47] = tested on: SNB-75
[48] = tested on: SNB-78
[49] = tested on: SR
[50] = tested on: SW-620
[51] = tested on: TK-10
[52] = tested on: U-251
[53] = tested on: UACC-257
[54] = tested on: UACC-62
[55] = tested on: UO-31
[56] = tested on: XF498
[57] = tested on: LOX IMVI
[58] = tested on: OVCAR-3

In the case of `COC(=O)[C@@H]1CCCCC[C@H]2C(CO)=C(C)C(=O)C12` (some centres undefined), the GI50 [1] is reported as > 100 µM (inactive), the GI50 [2] is reported as > 100 µM (inactive) and the GI50 [3] is reported as > 100 µM (inactive). The GI50 [4] was > 100 µM (inactive), the GI50 [5] was > 100 µM (inactive) and the GI50 [6] was > 100 µM (inactive). For the same compound, the GI50 [7] was > 100 µM (inactive), the GI50 [8] was > 100 µM (inactive) and the GI50 [9] was > 100 µM (inactive). The GI50 [10] was > 100 µM (inactive), the GI50 [11] was > 100 µM (inactive) and the GI50 [12] was > 100 µM (inactive). For the same compound, the GI50 [13] was > 100 µM (inactive), the GI50 [14] was > 100 µM and the GI50 [15] was > 100 µM (inactive). The GI50 [16] was > 100 µM (inactive), the GI50 [17] was > 100 µM (inactive) and the GI50 [18] was > 100 µM (inactive). For the same compound, the GI50 [19] was > 100 µM (inactive), the GI50 [20] was > 100 µM (inactive) and the GI50 [21] was > 100 µM (inactive). For the same compound, the GI50 [22] was > 100 µM (inactive), the GI50 [23] was > 100 µM (inactive) and the GI50 [24] was > 100 µM (inactive). The GI50 [25] was > 100 µM (inactive), the GI50 [26] was > 100 µM (inactive) and the GI50 [27] was > 100 µM (inactive). The GI50 [28] was > 100 µM (inactive), the GI50 [29] was 99.1 µM (inactive) and the GI50 [30] was > 100 µM (inactive). For the same compound, the GI50 [31] was > 100 µM (inactive), the GI50 [32] was > 100 µM (inactive) and the GI50 [33] was > 100 µM (inactive). The GI50 [34] was > 100 µM (inactive), the GI50 [35] was > 100 µM (inactive) and the GI50 [36] was > 100 µM (inactive). For the same compound, the GI50 [37] was > 100 µM (inactive), the GI50 [38] was > 100 µM (inactive) and the GI50 [39] was > 100 µM (inactive). The GI50 [40] was > 100 µM (inactive), the GI50 [41] was > 100 µM (inactive) and the GI50 [42] was > 100 µM (inactive). The GI50 [43] was > 100 µM (inactive), the GI50 [44] was > 100 µM (inactive) and the GI50 [45] was > 100 µM (inactive). For the same compound, the GI50 [46] was > 100 µM (inactive), the GI50 [47] was > 100 µM (inactive) and the GI50 [48] was > 100 µM (inactive). The GI50 [49] was > 100 µM (inactive), the GI50 [50] was > 100 µM (inactive) and the GI50 [51] was > 100 µM (inactive). The GI50 [52] was > 100 µM (inactive), the GI50 [53] was > 100 µM (inactive) and the GI50 [54] was > 100 µM (inactive). For the same compound, the GI50 [55] was > 100 µM (inactive) and the GI50 [56] was > 100 µM (inactive).
With `CCCCCCCCCCCCCCCC(=O)NCC(COP(=O)([O-])OCC[N+](C)(C)C)OCC` (centres undefined) the GI50 [1] was 2.54 µM (inactive), the GI50 [2] was > 10 µM (inactive) and the GI50 [3] was 21 µM (inactive). For the same compound, the GI50 [4] was 15 µM (inactive), the GI50 [5] was 19.7 µM (inactive) and the GI50 [7] was 2.31 µM (inactive). For the same compound, the GI50 [8] was 5.19 µM (inactive), the GI50 [9] was 16 µM (inactive) and the GI50 [10] was 2.36 µM (inactive). The GI50 [11] was 19.2 µM (inactive), the GI50 [12] was 1.55 µM (inactive) and the GI50 [13] was 11.2 µM (inactive). The GI50 [14] was 6.4 µM, the GI50 [16] was 0.92 µM (active) and the GI50 [17] was 7.35 µM (inactive). The GI50 [18] was 3.52 µM (inactive), the GI50 [19] was 5.22 µM (inactive) and the GI50 [20] was 4.54 µM (inactive). The GI50 [22] was 4.01 µM (inactive), the GI50 [23] was 1.27 µM (inactive) and the GI50 [57] was 16.3 µM (inactive). For the same compound, the GI50 [24] was 13.1 µM (inactive), the GI50 [25] was 11.5 µM (inactive) and the GI50 [26] was 4.5 µM (inactive). For the same compound, the GI50 [27] was 3.24 µM (inactive), the GI50 [28] was 16.9 µM (inactive) and the GI50 [29] was 3.12 µM (inactive). For the same compound, the GI50 [30] was 18.8 µM (inactive), the GI50 [31] was 2.96 µM (inactive) and the GI50 [58] was 6.25 µM (inactive). For the same compound, the GI50 [33] was 3.21 µM (inactive), the GI50 [34] was 10 µM (inactive) and the GI50 [35] was 4.42 µM (inactive). The GI50 [36] was 2.9 µM (inactive), the GI50 [37] was 2.1 µM (inactive) and the GI50 [38] was 12.8 µM (inactive). For the same compound, the GI50 [39] was 5.2 µM (inactive), the GI50 [40] was 16.2 µM (inactive) and the GI50 [41] was 21 µM (inactive). For the same compound, the GI50 [43] was 18.9 µM (inactive), the GI50 [44] was 18 µM (inactive) and the GI50 [45] was 12.5 µM (inactive). The GI50 [46] was 3.71 µM (inactive), the GI50 [47] was 11 µM (inactive) and the GI50 [48] was 14.1 µM (inactive). For the same compound, the GI50 [49] was 4.58 µM (inactive), the GI50 [50] was 13 µM (inactive) and the GI50 [51] was 1.63 µM (inactive). For the same compound, the GI50 [52] was 4.16 µM (inactive), the GI50 [53] was 15.7 µM (inactive) and the GI50 [54] was 9.35 µM (inactive). The GI50 [55] was 18.5 µM (inactive) and the GI50 [56] was 12.1 µM (inactive).
